Results published in patent US20060063764A1, “Insect repellents” (Givaudan SA, priority 2002, published 2006).
Several values for one entry are separate records, joined by “and”; a condition that tells them apart may be missing. Identical values can stand only once.

System: German cockroaches (Blatella Germanica)
Test: Cockroach repellency on partially treated melamine-formaldehyde laminate surface (harbourage choice test)
Format: in vivo
Conditions: 20 mg/m^2; for Percentage Present on treated section, Average / Percentage Present on untreated section, Average: Average of days 1, 2, 3; for Number of Cockroaches present, Treated Section / Number of Cockroaches present, Untreated Section / Number of Cockroaches, Dead: single replicate, n = 20; for Number of Cockroaches present, Treated Section, Total of 4 replicates / Number of Cockroaches present, Untreated Section, Total of 4 replicates / Number of Cockroaches, Dead, Total of 4 replicates: total of 80
Description: The effectiveness of compounds of formula I as insect repellents is determined using German cockroaches exposed to a melamine-formaldehyde laminate surface partially treated/partially untreated with a test compound of formula I.
The study was conducted in an air-conditioned laboratory at a temperature of 22°±2° ° C. under a normal day/night cycle, using German cockroaches (Blatella Germanica) of mixed sex and age. The study was conducted over a 3 day period and the repellent effectiveness was assessed 1, 2 and 3 days after cockroach introduction.
One half of a rectangle of laminate 40 cm×30 cm was treated at 20 mg/m^2 of a test compound of formula I. This was achieved by soaking a paper wipe (“Rag on a Roll” ca 20 cm×20 cm) in a solution of the test compound in ethanol, squeezing out the excess liquid and wiping over the surface to give the required coverage. This was checked by weighing the cloth after application. The surface was allowed to dry. The other half of the rectangle was wiped with ethanol alone (untreated surface).
The treated laminate rectangle was placed on the bench and a plastic container was placed on the rectangle. This had been treated with “Fluon” (trade mark), a sprayable fluoropolymer, to prevent cockroach escape.
Two sheets of laminate (10 cm×10 cm) were placed on the laminate, one on the treated surface and one on the untreated surface. This acted as a cockroach harbourage. The laminate sheet to be used in the treated section was treated at the same rate as the treated laminate. The laminate was placed on two 1 cm high bottle tops to allow cockroaches access under the laminate.
20 German cockroaches were added (5 adults and 15 nymphs) to the centre of the laminate. No food and water was supplied for these cockroaches.
At 1, 2 and 3 days after cockroach introduction the number of cockroaches under each harbourage was counted. After each count the harbourage position was changed to avoid the possibility of habituation to one location, the harbourages were replaced and new cockroaches were added to replace any dead cockroaches.
The above was repeated 3 times to provide a total of 4 replicates.
The methodology of Example 2 was repeated for all of the compounds set forth in Example 1.

[1] = 1 day after cockroach introduction
[2] = 2 days after cockroach introduction
[3] = 3 days after cockroach introduction

SMILES: CC(C)[C@@H]1CC[C@@H](C)C[C@H]1OC(=O)N1CCOCC1
- Percentage Present on treated section (1 day after treatment): 17.5%
- Percentage Present on untreated section (1 day after treatment): 82.5%
- Percentage Present on treated section (2 days after treatment): 17.5%
- Percentage Present on untreated section (2 days after treatment): 82.5%
- Percentage Present on treated section (3 days after treatment): 25.0%
- Percentage Present on untreated section (3 days after treatment): 75.0%
- Percentage Present on treated section, Average: 20.0%
- Percentage Present on untreated section, Average: 80.0%

SMILES: CC(C)[C@@H]1CC[C@@H](C)C[C@H]1OC(=O)N1CCCCC1
- Percentage Present on treated section (1 day after treatment): 10.0%
- Percentage Present on untreated section (1 day after treatment): 90.0%
- Percentage Present on treated section (2 days after treatment): 11.3%
- Percentage Present on untreated section (2 days after treatment): 88.7%
- Percentage Present on treated section (3 days after treatment): 3.9%
- Percentage Present on untreated section (3 days after treatment): 96.1%
- Percentage Present on treated section, Average: 8.4%
- Percentage Present on untreated section, Average: 91.6%

SMILES: CCN(CC)C(=O)O[C@@H]1C[C@H](C)CC[C@H]1C(C)C
- Percentage Present on treated section (1 day after treatment): 7.6%
- Percentage Present on untreated section (1 day after treatment): 92.4%
- Percentage Present on treated section (2 days after treatment): 2.5%
- Percentage Present on untreated section (2 days after treatment): 97.5%
- Percentage Present on treated section (3 days after treatment): 2.5%
- Percentage Present on untreated section (3 days after treatment): 97.5%
- Percentage Present on treated section, Average: 4.2%
- Percentage Present on untreated section, Average: 95.8%

SMILES: CC(C)[C@@H]1CC[C@@H](C)C[C@H]1OC(=O)N1CCCC1
- Percentage Present on treated section (1 day after treatment): 2.5%
- Percentage Present on untreated section (1 day after treatment): 97.5%
- Percentage Present on treated section (2 days after treatment): 7.5%
- Percentage Present on untreated section (2 days after treatment): 92.5%
- Percentage Present on treated section (3 days after treatment): 12.7%
- Percentage Present on untreated section (3 days after treatment): 87.3%
- Percentage Present on treated section, Average: 7.6%
- Percentage Present on untreated section, Average: 92.4%

SMILES: CNC(=O)O[C@@H]1C[C@H](C)CC[C@H]1C(C)C [Methyl-Carbamic Acid (−)-Menthyl Ester, Methyl-carbamic acid (−)-menthyl ester]
- Number of Cockroaches present, Treated Section [1]: 0 (2×) and 3 and 1
- Number of Cockroaches present, Untreated Section [1]: 20 and 19 (2×) and 17
- Number of Cockroaches, Dead [1]: 0 (3×) and 1
- Number of Cockroaches present, Treated Section, Total of 4 replicates [1]: 4
- Number of Cockroaches present, Untreated Section, Total of 4 replicates [1]: 75
- Number of Cockroaches, Dead, Total of 4 replicates [1]: 1
- Number of Cockroaches present, Treated Section [2]: 1 (2×) and 0 (2×)
- Number of Cockroaches present, Untreated Section [2]: 19 (3×) and 20
- Number of Cockroaches, Dead [2]: 0 (3×) and 1
- Number of Cockroaches present, Treated Section, Total of 4 replicates [2]: 2
- Number of Cockroaches present, Untreated Section, Total of 4 replicates [2]: 77
- Number of Cockroaches, Dead, Total of 4 replicates [2]: 1
- Number of Cockroaches present, Treated Section [3]: 0 (3×) and 1
- Number of Cockroaches present, Untreated Section [3]: 20 (3×) and 19
- Number of Cockroaches, Dead [3]: 0
- Number of Cockroaches present, Treated Section, Total of 4 replicates [3]: 1
- Number of Cockroaches present, Untreated Section, Total of 4 replicates [3]: 79
- Number of Cockroaches, Dead, Total of 4 replicates [3]: 0

SMILES: CCCCNC(=O)O[C@@H]1C[C@H](C)CC[C@H]1C(C)C
- Percentage Present on treated section (1 day after treatment): 6.3%
- Percentage Present on untreated section (1 day after treatment): 93.7%
- Percentage Present on treated section (2 days after treatment): 17.5%
- Percentage Present on untreated section (2 days after treatment): 82.5%
- Percentage Present on treated section (3 days after treatment): 7.5%
- Percentage Present on untreated section (3 days after treatment): 92.5%
- Percentage Present on treated section, Average: 10.5%
- Percentage Present on untreated section, Average: 89.6%

SMILES: CNC(=O)O[C@@H]1C[C@H](C)CC[C@H]1C(C)C [drawing 13]
- Percentage Present on treated section (1 day after treatment): 5.1%
- Percentage Present on untreated section (1 day after treatment): 94.9%
- Percentage Present on treated section (2 days after treatment): 2.5%
- Percentage Present on untreated section (2 days after treatment): 97.5%
- Percentage Present on treated section (3 days after treatment): 1.3%
- Percentage Present on untreated section (3 days after treatment): 98.7%
- Percentage Present on treated section, Average: 3.0%
- Percentage Present on untreated section, Average: 97.0%

SMILES: CC(C)[C@@H]1CC[C@@H](C)C[C@H]1OC(=O)Nc1ccccc1
- Percentage Present on treated section (1 day after treatment): 2.5%
- Percentage Present on untreated section (1 day after treatment): 97.5%
- Percentage Present on treated section (2 days after treatment): 3.7%
- Percentage Present on untreated section (2 days after treatment): 96.3%
- Percentage Present on treated section (3 days after treatment): 2.5%
- Percentage Present on untreated section (3 days after treatment): 97.5%
- Percentage Present on treated section, Average: 2.9%
- Percentage Present on untreated section, Average: 97.1%

SMILES: CC(C)CNC(=O)O[C@@H]1C[C@H](C)CC[C@H]1C(C)C
- Percentage Present on treated section (1 day after treatment): 31.3%
- Percentage Present on untreated section (1 day after treatment): 68.7%
- Percentage Present on treated section (2 days after treatment): 17.5%
- Percentage Present on untreated section (2 days after treatment): 82.5%
- Percentage Present on treated section (3 days after treatment): 16.3%
- Percentage Present on untreated section (3 days after treatment): 83.7%
- Percentage Present on treated section, Average: 21.7%
- Percentage Present on untreated section, Average: 78.3%

SMILES: COC(=O)CCNC(=O)O[C@@H]1C[C@H](C)CC[C@H]1C(C)C
- Percentage Present on treated section (1 day after treatment): 11.4%
- Percentage Present on untreated section (1 day after treatment): 88.6%
- Percentage Present on treated section (2 days after treatment): 2.5%
- Percentage Present on untreated section (2 days after treatment): 97.5%
- Percentage Present on treated section (3 days after treatment): 10.0%
- Percentage Present on untreated section (3 days after treatment): 90.0%
- Percentage Present on treated section, Average: 8.0%
- Percentage Present on untreated section, Average: 92.0%
